Legend:
[1] = Plasma oxybutynin and desethyloxybutynin in rabbits with vaginal inserts; assay type: in vivo, rabbit; conditions: for plasma concentration: days 1-7; for plasma values at all time periods (day 1-7): 5.0 mg/day vaginal insert
Method: 12 rabbits were separated into 4 groups of 3 rabbits each. Under pentobarbital anesthesia (25 mg/kg, iv) A cylinder-shaped, curved silastic insert was placed in the vagina of each rabbit. This was accomplished by the following: a midline laparotomy was performed and after transvaginal insertion the implant was anchored with a single 2.0 silk suture through the outer vaginal wall and knotted to a 1 cm section of a medical-grade tubing to avoid damage to the vaginal wall. The inserts in group one contained vehicle, the inserts in groups 2-4 were calculated to release oxybutynin at rates of 0.5 mg/day; 1 mg/day; and 5 mg/day respectively. The inserts remained in place for 7 days. Samples of blood (2 ml) were collected at 12:00 noon on days 1, 3, 5 and 7. After the last blood sample was obtained, each rabbit was sedated and cystometries were performed. Immediately after the cystometry, the rabbit was euthanized, the lower urinary tract including the vagina was removed and evaluated for irritation. In addition, the bladder was excised and weighed.
The samples of blood were frozen and subsequently analyzed. The oxybutynin and desethyloxybutynin concentrations were quantified.

[2] = oral administration of oxybutynin; cited from earlier work

CCNCC#CCOC(=O)C(O)(c1ccccc1)C1CCCCC1 (stereo not drawn) [N-desethyloxybutynin]
plasma concentration ([1]; 0.5 mg/day vaginal insert): below the level of detection
plasma concentration ([1]; 1.0 mg/day vaginal insert): below the level of detection
plasma values at all time periods (day 1-7) [1]: stable plasma values
AUC (area under the plasma time concentration curve) of the metabolite relative to oxybutynin [2]: 10-12 times
peak blood concentration of the metabolite relative to oxybutynin [2]: 6-9 times higher

CCN(CC)CC#CCOC(=O)C(O)(c1ccccc1)C1CCCCC1 (stereo not drawn) [oxybutynin, 4-diethylamino-2-butynylphenylcyclohexylglycolate]
change of plasma concentration between day 1 and 3 ([1]; 0.5 mg/day vaginal insert): increase
plasma concentration course between days 3 and 7 ([1]; 0.5 mg/day vaginal insert): stable concentration
change of plasma concentration between day 1 and 3 ([1]; 1.0 mg/day vaginal insert): increase
plasma concentration course between days 3 and 7 ([1]; 1.0 mg/day vaginal insert): stable concentration
plasma values at all time periods (day 1-7) [1]: stable plasma values
stable plasma concentration of 1.0 mg/day group relative to 0.5 mg/day group ([1]; vaginal inserts, FIG. 18): approximately twice
stable plasma concentration of 5.0 mg/day group relative to 1.0 mg/day group ([1]; vaginal inserts, FIG. 18): approximately 4 fold
